# Source: ChEMBL document CHEMBL3885861, “Open TG-GATES”
# Species on record: Rattus norvegicus
# Assay: Open TG-GATES - Regimen: Single
# Assay type: toxicity, organism-based, Sprague-Dawley
# Parameters: regimen Single, gender Male, age 6 weeks
# Conditions: in vivo, po, 0 mg/kg, route gavage, dose level Control; for APTT / Bas / Eos / Fbg / Hb / Ht / Lym / MCH / MCHC / MCV / Mono / Neu / PT / Plat / RBC / Ret / WBC: tissue Blood; for KIDNEY_TOTAL: tissue Kidney; for LIVER: tissue Liver; for A/G / ALP / ALT / AST / BUN / CRE / Ca / Cl / DBIL / GLC / IP / K / LDH / Na / PL / RALB / TBIL / TC / TG / TP / gamma-GTP: tissue Plasma
compound,measurement,setting,value
CN(CCOc1ccc(CC2SC(=O)NC2=O)cc1)c1ccccn1.O=C(O)/C=C\C(=O)O (centres undefined) [ROSIGLITAZONE MALEATE],TERMINAL_BW,3 h,206.3 g
same,APTT,3 h,15.8 s
same,Bas,3 h,0%
same,Eos,3 h,0.6%
same,Fbg,3 h,216.8 mg/dL
same,Hb,3 h,13.1 g/dL
same,Ht,3 h,39.7%
same,Lym,3 h,75.6%
same,MCH,3 h,21.4 pg
same,MCHC,3 h,33.1%
same,MCV,3 h,64.7 fL
same,Mono,3 h,9.2%
same,Neu,3 h,14.4%
same,PT,3 h,12 s
same,Plat,3 h,123.6 x10_4/uL
same,RBC,3 h,614 x10_4/ul
same,Ret,3 h,8.6%
same,WBC,3 h,110.6 x10_2/uL
same,KIDNEY_TOTAL,3 h,0.6 g
same,LIVER,3 h,9.7 g
same,A/G,3 h,2.3
same,ALP,3 h,1326.2 IU/L
same,ALT,3 h,36.6 IU/L
same,AST,3 h,71 IU/L
same,BUN,3 h,13 mg/dL
same,CRE,3 h,0.3 mg/dL
same,Ca,3 h,11.4 mg/dL
same,Cl,3 h,104.2 meq/L
same,DBIL,3 h,0.012 mg/dL
same,GLC,3 h,195.6 mg/dL
same,IP,3 h,8.6 mg/dL
same,K,3 h,4.4 meq/L
same,LDH,3 h,82 IU/L
same,Na,3 h,139.8 meq/L
same,PL,3 h,138.2 mg/dL
same,RALB,3 h,3.7 g/dL
same,TBIL,3 h,0.046 mg/dL
same,TC,3 h,76 mg/dL
same,TG,3 h,71.4 mg/dL
same,TP,3 h,5.4 g/dL
same,gamma-GTP,3 h,0.6 IU/L
same,TERMINAL_BW,6 h,205.9 g
same,APTT,6 h,15.9 s
same,Bas,6 h,0%
same,Eos,6 h,1.2%
same,Fbg,6 h,220.2 mg/dL
same,Hb,6 h,13.2 g/dL
same,Ht,6 h,40%
same,Lym,6 h,80.2%
same,MCH,6 h,21.6 pg
same,MCHC,6 h,32.9%
same,MCV,6 h,65.7 fL
same,Mono,6 h,4.4%
same,Neu,6 h,14.6%
same,PT,6 h,12.2 s
same,Plat,6 h,117 x10_4/uL
same,RBC,6 h,609.4 x10_4/ul
same,Ret,6 h,9.7%
same,WBC,6 h,92.8 x10_2/uL
same,KIDNEY_TOTAL,6 h,0.7 g
same,LIVER,6 h,9.7 g
same,A/G,6 h,2.3
same,ALP,6 h,1368.6 IU/L
same,ALT,6 h,35.6 IU/L
same,AST,6 h,66.6 IU/L
same,BUN,6 h,10.4 mg/dL
same,CRE,6 h,0.3 mg/dL
same,Ca,6 h,11.3 mg/dL
same,Cl,6 h,104.2 meq/L
same,DBIL,6 h,0.01 mg/dL
same,GLC,6 h,183.4 mg/dL
same,IP,6 h,8.9 mg/dL
same,K,6 h,4.4 meq/L
same,LDH,6 h,79.2 IU/L
same,Na,6 h,138.6 meq/L
same,PL,6 h,143.4 mg/dL
same,RALB,6 h,3.7 g/dL
same,TBIL,6 h,0.05 mg/dL
same,TC,6 h,83.6 mg/dL
same,TG,6 h,70.4 mg/dL
same,TP,6 h,5.3 g/dL
same,gamma-GTP,6 h,1 IU/L
same,TERMINAL_BW,9 h,204 g
same,APTT,9 h,15.7 s
same,Bas,9 h,0%
same,Eos,9 h,0.6%
same,Fbg,9 h,221.4 mg/dL
same,Hb,9 h,12.8 g/dL
same,Ht,9 h,39.1%
same,Lym,9 h,73.4%
same,MCH,9 h,21.6 pg
same,MCHC,9 h,32.9%
same,MCV,9 h,65.6 fL
same,Mono,9 h,7.8%
same,Neu,9 h,18.4%
same,PT,9 h,11.9 s
same,Plat,9 h,123 x10_4/uL
same,RBC,9 h,597 x10_4/ul
same,Ret,9 h,9%
same,WBC,9 h,93.6 x10_2/uL
same,KIDNEY_TOTAL,9 h,0.7 g
same,LIVER,9 h,8.8 g
same,A/G,9 h,2.4
same,ALP,9 h,1162.4 IU/L
same,ALT,9 h,34.2 IU/L
same,AST,9 h,68.8 IU/L
same,BUN,9 h,10.8 mg/dL
same,CRE,9 h,0.3 mg/dL
same,Ca,9 h,11 mg/dL
same,Cl,9 h,104.8 meq/L
same,DBIL,9 h,0.01 mg/dL
same,GLC,9 h,184 mg/dL
same,IP,9 h,10 mg/dL
same,K,9 h,4.5 meq/L
same,LDH,9 h,85 IU/L
same,Na,9 h,139.8 meq/L
same,PL,9 h,137.4 mg/dL
same,RALB,9 h,3.8 g/dL
same,TBIL,9 h,0.046 mg/dL
same,TC,9 h,87.6 mg/dL
same,TG,9 h,45.2 mg/dL
same,TP,9 h,5.4 g/dL
same,gamma-GTP,9 h,1 IU/L
same,TERMINAL_BW,24 h,219.8 g
same,APTT,24 h,16.5 s
same,Bas,24 h,0%
same,Eos,24 h,1%
same,Fbg,24 h,225 mg/dL
same,Hb,24 h,12.8 g/dL
same,Ht,24 h,38.9%
same,Lym,24 h,79.4%
same,MCH,24 h,21.5 pg
same,MCHC,24 h,32.8%
same,MCV,24 h,65.6 fL
same,Mono,24 h,5.2%
same,Neu,24 h,14.4%
same,PT,24 h,11.7 s
same,Plat,24 h,124.2 x10_4/uL
same,RBC,24 h,593 x10_4/ul
same,Ret,24 h,8%
same,WBC,24 h,92.8 x10_2/uL
same,KIDNEY_TOTAL,24 h,0.7 g
same,LIVER,24 h,10.7 g
same,A/G,24 h,2.3
same,ALP,24 h,1499.4 IU/L
same,ALT,24 h,38.4 IU/L
same,AST,24 h,66.4 IU/L
same,BUN,24 h,15.4 mg/dL
same,CRE,24 h,0.4 mg/dL
same,Ca,24 h,11.5 mg/dL
same,Cl,24 h,104 meq/L
same,DBIL,24 h,0.016 mg/dL
same,GLC,24 h,188.4 mg/dL
same,IP,24 h,7.7 mg/dL
same,K,24 h,4.4 meq/L
same,LDH,24 h,97 IU/L
same,Na,24 h,140.4 meq/L
same,PL,24 h,164.2 mg/dL
same,RALB,24 h,3.9 g/dL
same,TBIL,24 h,0.038 mg/dL
same,TC,24 h,94.4 mg/dL
same,TG,24 h,107 mg/dL
same,TP,24 h,5.6 g/dL
same,gamma-GTP,24 h,1 IU/L
